Earlier results in patent US20200315965A1, “NANOEMULSION CONCENTRATE FORMULATIONS AND METHODS” (priority 2019, published 2020).

Settings: water

For CCCCCc1cc(O)c2c(c1)OC(C)(C)[C@@H]1CCC(C)=C[C@@H]21 [THC, tetrahydrocannabinol], the aqueous solubility is given as about 0.003 milligrams per milliliter.
